Among the test systems are RPMI-8226 leukemia; A498 renal; SF-539 CNS; OVCAR-5 ovarian; HL-60(TB) leukemia; HCT-116 colon; ACHN renal; HCC-2998 colon; NCI-H226 lung; COLO 205 colon.
Common to all, as to experiment: NCI-60 cell line screen, 48 h

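The compound was tested at five concentrations on cells cultured in 96-well plates, with a 48-hour exposure period. GI50 marks 50% less growth. The concentration for full growth arrest is given as TGI.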 A value given as a limit tells only on which side of the number the result lay.

Turning to `Cc1ccccc1C(=O)N1CCN(C(=O)c2ccccc2C)CC1`, the TGI with RPMI-8226 leukemia, in the assay with A498 renal, in the assay on SF-539 CNS, with OVCAR-5 ovarian, in the assay on HL-60(TB) leukemia and in the assay with HCT-116 colon was more than 100 µM each time. Besides, the TGI in the assay with ACHN renal and with HCC-2998 colon was more than 100 µM each time.
`CCC(=O)Nc1nc2c(ncn2C2OC(COC(=O)CC)C(OC(=O)CC)C2OC(=O)CC)c(=O)[nH]1` (configuration not stated): the TGI in the assay on RPMI-8226 leukemia, in the assay on A498 renal, in the assay on SF-539 CNS, in the assay with OVCAR-5 ovarian, in the assay on HL-60(TB) leukemia and in the assay on HCT-116 colon was more than 100 µM each time. The TGI in the assay with ACHN renal, in the assay with HCC-2998 colon and in the assay with NCI-H226 lung was more than 100 µM in each case.
For the compound `Cn1cc(C2=C(c3cn(C4CCN(Cc5ccccn5)CC4)c4ccccc34)C(=O)NC2=O)c2ccccc21`, the GI50 in the assay on RPMI-8226 leukemia is 3.93 µM; with SF-539 CNS, 3.03 µM; with OVCAR-5 ovarian, more than 100 µM; with HL-60(TB) leukemia, 3.97 µM; in the assay with HCT-116 colon, 3.03 µM; in the assay with ACHN renal, 9.36 µM. Further, the GI50 in the assay on HCC-2998 colon is more than 100 µM; in the assay on COLO 205 colon, 3.08 µM. Further, the TGI with RPMI-8226 leukemia, in the assay with SF-539 CNS, with OVCAR-5 ovarian, with HL-60(TB) leukemia, in the assay with HCT-116 colon and in the assay with ACHN renal was more than 100 µM in each case. Besides, the TGI in the assay on HCC-2998 colon and in the assay with COLO 205 colon was more than 100 µM throughout.
With `COC(=O)C1(C(=O)OC)CC(=O)c2cc3c(cc2-c2c(cc(OC)c(OC)c2OC)C1)OCO3`, the TGI in the assay on SF-539 CNS, in the assay on OVCAR-5 ovarian, in the assay with HL-60(TB) leukemia, with HCT-116 colon, in the assay with ACHN renal and with HCC-2998 colon was more than 211 µM in each case. Further, the TGI in the assay with NCI-H226 lung and in the assay on COLO 205 colon was more than 211 µM each time.
As for `CC(=O)OC(Cn1cncn1)(Cn1cncn1)c1ccc(Cl)cc1Cl`, the TGI with RPMI-8226 leukemia, in the assay with A498 renal, in the assay on SF-539 CNS, with OVCAR-5 ovarian, in the assay on HL-60(TB) leukemia and in the assay on HCC-2998 colon was more than 100 µM each time. Moreover, the TGI with NCI-H226 lung and in the assay with COLO 205 colon was more than 100 µM each time.
As for `O=C(N/N=C/c1cccc(F)c1)c1ccncc1`, the TGI in the assay with RPMI-8226 leukemia, in the assay on A498 renal, in the assay on HL-60(TB) leukemia, with HCT-116 colon, in the assay with ACHN renal and in the assay with HCC-2998 colon was more than 100 µM throughout. Also, the TGI in the assay on NCI-H226 lung is 3.78 µM; with COLO 205 colon it was more than 100 µM.
Consider `Cc1c2ccccc2cc2ccc3oc([N+](=O)[O-])cc3c12`, for which the TGI in the assay on RPMI-8226 leukemia, in the assay on A498 renal, in the assay with SF-539 CNS, in the assay on OVCAR-5 ovarian, in the assay with HL-60(TB) leukemia and in the assay on HCT-116 colon was more than 100 µM each time. Moreover, the TGI in the assay with ACHN renal, in the assay on HCC-2998 colon and in the assay with COLO 205 colon was more than 100 µM in each case.
For the compound `COc1ccc(CN2CCC/C=C/CC(Cl)(Cl)C2=O)cc1`, the TGI in the assay with RPMI-8226 leukemia was 69.4 µM; with A498 renal it was 73.7 µM; in the assay with SF-539 CNS it was more than 100 µM; in the assay on OVCAR-5 ovarian, more than 100 µM; with HL-60(TB) leukemia, 69.2 µM; in the assay on HCT-116 colon, more than 100 µM. Moreover, the results for the TGI with ACHN renal, in the assay with HCC-2998 colon and in the assay with COLO 205 colon were 78.8 µM, more than 100 µM and 41.2 µM, respectively.
`CC(C)(C)OC(=O)NCCCCCCCn1c2c(c3ccccc3c1=O)C(=O)c1ccccc1-2`: the GI50 is 4.74 µM in the assay with A498 renal; 20.7 µM in the assay with SF-539 CNS; more than 100 µM with OVCAR-5 ovarian; 16.4 µM in the assay on HL-60(TB) leukemia; 17.6 µM with HCT-116 colon; 27.1 µM in the assay on ACHN renal. Also, the GI50 with HCC-2998 colon is 40.6 µM; with NCI-H226 lung, 31.3 µM; in the assay with COLO 205 colon it was 63.7 µM. Further, the TGI with A498 renal was 42.2 µM; in the assay on SF-539 CNS, 38.8 µM; in the assay on OVCAR-5 ovarian, more than 100 µM; with HL-60(TB) leukemia, 40.5 µM; in the assay with HCT-116 colon it was 66.6 µM; with ACHN renal, 90.4 µM. The TGI in the assay on HCC-2998 colon was more than 100 µM; with NCI-H226 lung it was 77.8 µM; in the assay with COLO 205 colon it was more than 100 µM.
On to `COc1ccc(/C(=N\NC(=S)NN)C(c2ccc(OC)cc2)C2C(=O)Oc3ccccc32)cc1` (configuration not stated), for which the GI50 in the assay with RPMI-8226 leukemia, with SF-539 CNS, with OVCAR-5 ovarian, with HL-60(TB) leukemia, in the assay with HCT-116 colon and in the assay on ACHN renal was more than 100 µM each time. The GI50 with NCI-H226 lung and with COLO 205 colon was more than 100 µM in each case. The TGI in the assay on RPMI-8226 leukemia, in the assay with SF-539 CNS, in the assay on OVCAR-5 ovarian, with HL-60(TB) leukemia, with HCT-116 colon and in the assay on ACHN renal was more than 100 µM throughout. In addition, the TGI in the assay with HCC-2998 colon, in the assay with NCI-H226 lung and in the assay on COLO 205 colon was more than 100 µM throughout.
On to `CCN(C(=O)/C=C/c1ccco1)c1ccccc1`, for which the TGI in the assay with RPMI-8226 leukemia, in the assay on A498 renal, in the assay with OVCAR-5 ovarian, with HL-60(TB) leukemia, with HCT-116 colon and in the assay on ACHN renal was more than 100 µM throughout. Besides, the TGI in the assay on HCC-2998 colon, in the assay on NCI-H226 lung and in the assay with COLO 205 colon was more than 100 µM each time.
On to `CCCCCCCCCCCCCCCC[N+]1(C)CCOCC1`, for which the GI50 is 1.3 µM in the assay with RPMI-8226 leukemia; 3.38 µM in the assay on A498 renal; 1.87 µM in the assay with SF-539 CNS; 1.14 µM in the assay on OVCAR-5 ovarian; 1.31 µM in the assay with HL-60(TB) leukemia; 1.59 µM with HCT-116 colon. Besides, the values for the GI50 in the assay with ACHN renal, in the assay with HCC-2998 colon and with COLO 205 colon were 2.93 µM, 1.21 µM and 1.15 µM, respectively. For the same compound, the TGI in the assay on RPMI-8226 leukemia was 4.06 µM; in the assay on A498 renal, 21.5 µM; with SF-539 CNS, 4.07 µM; in the assay with OVCAR-5 ovarian it was 2.89 µM; in the assay on HL-60(TB) leukemia, 3.35 µM; in the assay with HCT-116 colon it was 3.87 µM. The TGI in the assay with ACHN renal came out at 13.9 µM; in the assay with HCC-2998 colon, 2.75 µM; in the assay on COLO 205 colon, 2.42 µM.
